Measured values reported in patent US6372779B1, “Anti-inflammatory compounds” (Ortho Pharmaceutical Corporation, priority 1997, dated 2002).

Tested on: human progesterone receptor (hPR)
Assay: human progesterone receptor binding assay (displacement of 3H R5020 promegestone)
Protocol: A human progesterone receptor binding assay was performed in order to determine selectivity of the compounds, as follows. Human progesterone receptors were prepared from either insect cells (SF21) infected with baculovirus hPR A, or from a breast cancer cell line, T47D, which expresses high levels of endogenous hPR. The receptor binding reactions, with or without test compounds, were set up in 96-well microtiter plates which were previously siliconized with SIGMACOTE. The binding components, 3(H) R5020 Promegestone, a high affinity ligand for the progesterone receptors, glycerollmolybdate-containing buffer and unlabeled compounds were added to the wells using a combination of BIOMEK laboratory automation system and repeat pipettes. After overnight incubation, the samples were precipitated with polyethylene glycol and filtered through Whatman GF/F paper using a TOMTEK cell harvester. The filter mate with 96 samples were bound to a solid-phase scintillant and directly counted in the BETAPLATE counter. Only those compounds that were active in the human glucocorticoid receptor assay set forth in Example 30 were used for progesterone receptor binding to determine cross-reactivity profiles, if any. The activity of test compounds to displace 3(H) R5020 binding to hPR is expressed as percent inhibition at the two concentrations, 10^−6 and 10^−5 Molar.

| Compound | hPR % inh 10 μM |
| --- | --- |
| O=C(Cc1cc(C(F)(F)F)cc(C(F)(F)F)c1)NCC(c1ccc(C(F)(F)F)cc1)C(c1ccccc1)c1ccccc1 (stereo not shown) [Compound 151] | 41% |
| Cc1ccc(CC(=O)NCC(c2ccc(C(F)(F)F)cc2)C(c2ccccc2)c2ccccc2)cc1 (stereo not shown) [Compound 152] | 41% |
| O=C(Cc1ccc([N+](=O)[O-])cc1)NCC(c1ccc(C(F)(F)F)cc1)C(c1ccccc1)c1ccccc1 (stereo not shown) [Compound 154] | 34% |
| CN(C)c1ccc(CC(=O)NCC(c2ccc(C(F)(F)F)cc2)C(c2ccccc2)c2ccccc2)cc1 (stereo not shown) [Compound 155] | 29% |
| O=C(Cc1ccc(-c2ccccc2)cc1)NCC(c1ccc(C(F)(F)F)cc1)C(c1ccccc1)c1ccccc1 (stereo not shown) [Compound 156] | 19% |
| O=C(Cc1ccc2ccccc2c1)NCC(c1ccc(C(F)(F)F)cc1)C(c1ccccc1)c1ccccc1 (stereo not shown) [Compound 157] | 10% |
| Cc1c(CC(=O)NCC(c2ccc(C(F)(F)F)cc2)C(c2ccccc2)c2ccccc2)sc2ccc(Cl)cc12 (stereo not shown) [Compound 158] | 16% |
| CN(C)c1ccc(C=CC(=O)NCC(c2ccc(C(F)(F)F)cc2)C(c2ccccc2)c2ccccc2)cc1 (stereo not shown) [Compound 159] | 12% |
| O=C(NCC(c1ccc(C(F)(F)F)cc1)C(c1ccccc1)c1ccccc1)c1cc(C(F)(F)F)cc(C(F)(F)F)c1 (stereo not shown) [Compound 160] | 10% |
| O=C(Cc1ccccc1Cl)NCC(c1ccc(I)cc1)C(c1ccccc1)c1ccccc1 (stereo not shown) [Compound 161] | 42% |
| O=C(Cc1ccc(Cl)cc1)NCC(c1ccc(I)cc1)C(c1ccccc1)c1ccccc1 (stereo not shown) [Compound 162] | 30% |
| O=C(Cc1ccc(Cl)c(Cl)c1)NCC(c1ccc(I)cc1)C(c1ccccc1)c1ccccc1 (stereo not shown) [Compound 163] | 44% |
| O=C(Cc1ccccc1F)NCC(c1ccc(I)cc1)C(c1ccccc1)c1ccccc1 (stereo not shown) [Compound 164] | 40% |
| O=C(Cc1ccc(F)cc1)NCC(c1ccc(I)cc1)C(c1ccccc1)c1ccccc1 (stereo not shown) [Compound 165] | 79% |
| O=C(Cc1ccc(C(F)(F)F)cc1)NCC(c1ccc(I)cc1)C(c1ccccc1)c1ccccc1 (stereo not shown) [Compound 166] | 46% |
| O=C(Cc1cc(C(F)(F)F)cc(C(F)(F)F)c1)NCC(c1ccc(I)cc1)C(c1ccccc1)c1ccccc1 (stereo not shown) [Compound 167] | 63% |
| COc1ccccc1CC(=O)NCC(c1ccc(I)cc1)C(c1ccccc1)c1ccccc1 (stereo not shown) [Compound 168] | 32% |
| COc1cccc(CC(=O)NCC(c2ccc(I)cc2)C(c2ccccc2)c2ccccc2)c1 (stereo not shown) [Compound 169] | 45% |
| COc1ccc(CC(=O)NCC(c2ccc(I)cc2)C(c2ccccc2)c2ccccc2)cc1 (stereo not shown) [Compound 170] | 25% |
| COc1cc(CC(=O)NCC(c2ccc(I)cc2)C(c2ccccc2)c2ccccc2)cc(OC)c1 (stereo not shown) [Compound 171] | 25% |
| O=C(NCC(c1ccc(I)cc1)C(c1ccccc1)c1ccccc1)c1ccccc1Cl (stereo not shown) [Compound 172] | 32% |
| O=C(NCC(c1ccc(I)cc1)C(c1ccccc1)c1ccccc1)c1ccc(Cl)cc1 (stereo not shown) [Compound 173] | 72% |
| O=C(NCC(c1ccc(I)cc1)C(c1ccccc1)c1ccccc1)c1ccc(Cl)c(Cl)c1 (stereo not shown) [Compound 174] | 50% |
| O=C(NCC(c1ccc(I)cc1)C(c1ccccc1)c1ccccc1)c1ccccc1F (stereo not shown) [Compound 175] | 65% |
| O=C(NCC(c1ccc(I)cc1)C(c1ccccc1)c1ccccc1)c1ccc(F)cc1 (stereo not shown) [Compound 176] | 68% |
| O=C(NCC(c1ccc(I)cc1)C(c1ccccc1)c1ccccc1)c1ccc(C(F)(F)F)cc1 (stereo not shown) [Compound 177] | 53% |
| O=C(NCC(c1ccc(I)cc1)C(c1ccccc1)c1ccccc1)c1cc(C(F)(F)F)cc(C(F)(F)F)c1 (stereo not shown) [Compound 178] | 53% |
| O=C(NCC(c1ccc(I)cc1)C(c1ccccc1)c1ccccc1)c1cccs1 (stereo not shown) [Compound 179] | 53% |
